What all share (format): cell-based
What all share (set-up): dose or concentration left out as unconfirmed

Test [1] has as its system prostate tumor cell line DU-145. Description: Viability assay, Trypan blue exclusion, prostate tumor cell line DU-145. To be noted: for cytotoxicity: Homo sapiens, DU-145, 96 hours, read-out: percent cell death (% Death), DU145; for percent cell death (% Death), DU145: 96 hours. The method, then: (§1) The effect of the sulfones on normal fibroblasts and on tumor cells of prostate, colon, lung and breast origin was examined utilizing the following cell lines: prostate tumor cell line DU-145; colorectal carcinoma cell line DLD-1; non-small cell lung carcinoma cell line H157; and breast tumor cell line BT-20. BT-20 is an estrogen-unresponsive cell line. NIH/3T3 and HFL are normal murine and human fibroblasts, respectively. BT-20, DLD-1 and H157 were grown in Dulbecco's modified Eagle's medium (DMEM) containing 10% fetal bovine serum supplemented with penicillin and streptomycin. DU145 was cultured in RPMI with 10% fetal bovine serum containing penicillin and streptomycin. NIH3T3 and HFL cells were grown in DMEM containing 10% calf serum supplemented with penicillin and streptomycin. All cell cultures were maintained at 37° C. in a humidified atmosphere of 5% CO2.
(§2) Cells were treated with test compound […] concentration and cell viability was determined after 96 hours by the Trypan blue exclusion method. Activity for each compound is reported as a range of cell induced death (% Death) with the lowest activity in the range of 5-10%.

For test [2], the system named is colorectal carcinoma cell line DLD-1. Description: Viability assay, Trypan blue exclusion, colorectal carcinoma cell line DLD-1. As to conditions: for cytotoxicity: Homo sapiens, DLD-1, 96 hours, read-out: percent cell death (% Death), DLD-1; for percent cell death (% Death), DLD-1: 96 hours. On the procedure: as §1, §2
The subject of test [3] is non-small cell lung carcinoma cell line H157. Description: Viability assay, Trypan blue exclusion, non-small cell lung carcinoma cell line H157. As to conditions: for cytotoxicity: Homo sapiens, NCI-H157, 96 hours, read-out: percent cell death (% Death), H157; for percent cell death (% Death), H157: 96 hours. The method, then:
as §1, §2

In test [4] the test system is breast tumor cell line BT-20. As to the kind of experiment: Viability assay, Trypan blue exclusion, breast tumor cell line BT-20. To be noted: for cytotoxicity: Homo sapiens, BT-20, 96 hours, read-out: percent cell death (% Death), BT20; for percent cell death (% Death), BT20: 96 hours. On the procedure:
as §1, §2

Regarding `O=[N+]([O-])c1ccc(CS(=O)(=O)/C=C/c2ccsc2)cc1` [Example 32, (E)-3-Thiopheneethenyl4-nitrobenzylsulfone], the cytotoxicity in test [1], in test [2], in test [3] and in test [4] was 5 to 10% in each case.
As for `O=S1(=O)C=CC(/C=C/S(=O)(=O)Cc2ccc(F)cc2)=C1` [Example 33, (E)-3-Thiophene-1,1-dioxoethenyl-4-fluorobenzylsulfone], in test [1], the “percent cell death (% Death), DU145” value was “+ ((+)=5-10%)”. In test [2], the “percent cell death (% Death), DLD-1” value was “+ ((+)=5-10%)”. The “percent cell death (% Death), H157” value in test [3] was “+ ((+)=5-10%)”. For the same compound, the “percent cell death (% Death), BT20” value in test [4] is given as “+ ((+)=5-10%)”.
As for `O=S1(=O)C=CC(/C=C/S(=O)(=O)Cc2ccc(Cl)cc2)=C1` [Example 34, (E)-3-Thiophene-1,1-dioxoethenyl-4chlorobenzylsulfone], in test [1], the “percent cell death (% Death), DU145” value was “+ ((+)=5-10%)”. Further, the “percent cell death (% Death), DLD-1” value in test [2] is on record as “+ ((+)=5-10%)”. For the same compound, in test [3], the “percent cell death (% Death), H157” value is on record as “+ ((+)=5-10%)”. In test [4], the “percent cell death (% Death), BT20” value is given as “+ ((+)=5-10%)”.
As for `O=S1(=O)C=CC(/C=C/S(=O)(=O)Cc2ccc(Br)cc2)=C1` [Example 35, (E)-3-Thiophene-1,1-dioxoethenyl-4-bromobenzylsulfone], the “percent cell death (% Death), DU145” value in test [1] is listed as “+ ((+)=5-10%)”. In test [2], the “percent cell death (% Death), DLD-1” value was “+ ((+)=5-10%)”. In addition, the “percent cell death (% Death), H157” value in test [3] is on record as “+ ((+)=5-10%)”. Further, the “percent cell death (% Death), BT20” value in test [4] was “+ ((+)=5-10%)”.
As to `COc1ccc(CS(=O)(=O)/C=C/C2=CS(=O)(=O)C=C2)cc1` [Example 36, (E)-3-Thiophene-1,1-dioxoethenyl-4-methoxybenzylsulfone], in test [1], the “percent cell death (% Death), DU145” value is given as “+ ((+)=5-10%)”. Moreover, in test [2], the “percent cell death (% Death), DLD-1” value is “+ ((+)=5-10%)”. Besides, in test [3], the “percent cell death (% Death), H157” value is “+ ((+)=5-10%)”. Besides, the “percent cell death (% Death), BT20” value in test [4] is given as “+ ((+)=5-10%)”.
For the compound `O=S1(=O)C=CC(/C=C/S(=O)(=O)Cc2ccc(Cl)cc2Cl)=C1` [Example 37, (E)-3-Thiophene-1,1-dioxoethenyl-2,4-dichlorobenzylsulfone], the “percent cell death (% Death), DU145” value in test [1] was “++ ((++)=10-15%)”. For the same compound, the “percent cell death (% Death), DLD-1” value in test [2] is “++ ((++)=10-15%)”. Further, the “percent cell death (% Death), H157” value in test [3] is reported as “++ ((++)=10-15%)”. In addition, in test [4], the “percent cell death (% Death), BT20” value is “++ ((++)=10-15%)”.
Take `O=S(=O)(/C=C/c1ccoc1)Cc1ccc(F)cc1` [Example 41, (E)-3-Furanethenyl-4-fluorobenzylsulfone]: the cytotoxicity in test [1], in test [2], in test [3] and in test [4] was 5 to 10% throughout.
Turning to `O=S(=O)(/C=C/c1ccoc1)Cc1ccc(Cl)cc1` [Example 42, (E)-3-Furanethenyl-4-chlorobenzylsulfone], the cytotoxicity in test [1], in test [2], in test [3] and in test [4] was above 80% in each case.
`O=S(=O)(/C=C/c1ccoc1)Cc1ccc(Br)cc1` [Example 43, (E)-3-Furanethenyl-4-bromobenzylsulfone]: the cytotoxicity in test [1], in test [2], in test [3] and in test [4] was above 80% each time.
For the compound `O=S(=O)(/C=C/c1ccoc1)Cc1ccc(I)cc1` [Example 44, (E)-3-Furanethenyl-4-iodobenzylsulfone], the cytotoxicity in test [1], in test [2], in test [3] and in test [4] was above 80% in each case.
For `COc1ccc(CS(=O)(=O)/C=C/c2ccoc2)cc1` [Example 46, (E)-3-Furanethenyl-4-methoxybenzylsulfone], the cytotoxicity in test [1], in test [2], in test [3] and in test [4] was above 80% each time.
On to `O=S(=O)(/C=C/c1ccoc1)Cc1ccc(C(F)(F)F)cc1` [Example 47, (E)-3-Furanethenyl-4-trifluoromethylbenzylsulfone], for which the “percent cell death (% Death), DU145” value in test [1] is “++++ ((++++)=50-60%)”. Besides, the “percent cell death (% Death), DLD-1” value in test [2] is listed as “++++ ((++++)=50-60%)”. For the same compound, the “percent cell death (% Death), H157” value in test [3] was “++++ ((++++)=50-60%)”. Besides, the “percent cell death (% Death), BT20” value in test [4] is on record as “++++ ((++++)=50-60%)”.
Turning to `O=S(=O)(/C=C/c1ccoc1)Cc1ccc(Cl)cc1Cl` [Example 48, (E)-3-Furanethenyl-2,4-dichlorobenzylsulfone], the cytotoxicity in test [1], in test [2], in test [3] and in test [4] was above 80% throughout.
As to `O=S(=O)(/C=C/c1ccoc1)Cc1ccc(Cl)c(Cl)c1` [Example 49, (E)-3-Furanethenyl-3,4-dichlorobenzylsulfone], the cytotoxicity was above 80% in test [1], 50 to 60% in test [2], 50 to 60% in test [3] and 50 to 60% in test [4].
For the compound `N#Cc1ccc(CS(=O)(=O)/C=C/c2ccoc2)cc1` [Example 50, (E)-3-Furanethenyl-4-cyanobenzylsulfone], the cytotoxicity in test [1], in test [2], in test [3] and in test [4] was 5 to 10% each time.
For the compound `O=[N+]([O-])c1ccc(CS(=O)(=O)/C=C/c2ccoc2)cc1` [Example 51, (E)-3-Furanethenyl-4-nitrobenzylsulfone], the cytotoxicity in test [1], in test [2], in test [3] and in test [4] was 5 to 10% each time.
Take `O=[N+]([O-])c1cc(/C=C/S(=O)(=O)Cc2ccc(Cl)cc2)cs1` [Example 55, (E)-2-Nitro-4-thiopheneethenyl-4-chlorobenzylsulfone]: the cytotoxicity in test [1] lay in the range of 10 to 15%; in test [2] it was 50 to 60%; in test [3] it was 5 to 10%; in test [4], 5 to 10%.
Consider `O=[N+]([O-])c1cc(/C=C/S(=O)(=O)Cc2ccc(I)cc2)cs1` [Example 56, (E)-2-Nitro-4-thiopheneethenyl-4-iodobenzylsulfone], for which the cytotoxicity in test [1], in test [2], in test [3] and in test [4] was 5 to 10% each time.
As to `O=[N+]([O-])c1cc(/C=C/S(=O)(=O)Cc2ccc(Cl)cc2Cl)cs1` [Example 57, (E)-2-Nitro-4-thiopheneethenyl-2,4-dichlorobenzylsulfone], the cytotoxicity in test [1] is 10 to 15%; in test [2] it was 10 to 15%; in test [3], 5 to 10%; in test [4], 5 to 10%.
For the compound `COc1ccc(CS(=O)(=O)/C=C/c2csc([N+](=O)[O-])c2)cc1` [Example 58, (E)-2-Nitro-4-thiopheneethenyl-4-methoxybenzylsulfone], the cytotoxicity in test [1] was 50 to 60%; in test [2], above 80%; in test [3], above 80%; in test [4] it was 40 to 50%.
Turning to `O=S(=O)(/C=C/c1cccc2ccccc12)Cc1ccc(F)cc1` [Example 62, (E)-1-Naphthaleneethenyl-4-fluorobenzylsulfone], the cytotoxicity in test [1], in test [2], in test [3] and in test [4] was 5 to 10% each time.
As for `O=S(=O)(/C=C/c1ccc2ccccc2c1)Cc1ccc(F)cc1` [Example 63, (E)-2-Naphthaleneethenyl-4-fluorobenzylsulfone], the cytotoxicity in test [1], in test [2], in test [3] and in test [4] was 5 to 10% each time.
As for `O=S(=O)(/C=C/c1cccc2ccccc12)Cc1ccc(Cl)cc1` [Example 64, (E)-1-Naphthaleneethenyl-4-chlorobenzylsulfone], the cytotoxicity in test [1], in test [2], in test [3] and in test [4] was 10 to 15% each time.
As for `O=S(=O)(/C=C/c1ccc2ccccc2c1)Cc1ccc(Cl)cc1` [Example 65, (E)-2-Naphthaleneethenyl-4-chlorobenzylsulfone], the cytotoxicity in test [1], in test [2], in test [3] and in test [4] was 5 to 10% in each case.
Take `O=S(=O)(/C=C/c1cccc2ccccc12)Cc1ccc(Br)cc1` [Example 66, (E)-1-Naphthaleneethenyl-4-bromobenzylsulfone]: the cytotoxicity in test [1], in test [2], in test [3] and in test [4] was 10 to 15% in each case.
As for `O=S(=O)(/C=C/c1ccc2ccccc2c1)Cc1ccc(Br)cc1` [Example 67, (E)-2-Naphthaleneethenyl-4-bromobenzylsulfone], the cytotoxicity in test [1], in test [2], in test [3] and in test [4] was 5 to 10% each time.

(Values after patent US6599932B1, “Alpha, beta-unsaturated sulfones for treating proliferative disorders” (Temple University-Of The Commonwealth System of Higher …, priority 2000, dated 2003).)
